From patent publication US20220241416A1, “METHODS FOR THE IDENTIFICATION OF SARM1 NADASE ACTIVITY INHIBITORS AND USES THEREOF” (Bar Ilan University, priority 2021, published 2022)
Entries after “also recorded” stand apart in the source; their conditions may differ. Blank lines part the entries; values can stand above or below the compound they belong to.

Columns and labels:
Format in all cases: biochemical
hSARM1 [1] = molecular target: T1, hSARM1 (Homo sapiens, UniProt Q6SZW1); experiment: In vitro hSARM1 NADase activity, Resasurin assay
T1 construct: hSARM1w.t; (26ERL . . . GPT724) that was not mutated in E642, was also expressed and isolated; 6xHis (N); TEV cleavage site (N); made in house; host or cells: HEK293F suspension cells
T1 sequence (Q6SZW1 with tags, fused parts or gaps): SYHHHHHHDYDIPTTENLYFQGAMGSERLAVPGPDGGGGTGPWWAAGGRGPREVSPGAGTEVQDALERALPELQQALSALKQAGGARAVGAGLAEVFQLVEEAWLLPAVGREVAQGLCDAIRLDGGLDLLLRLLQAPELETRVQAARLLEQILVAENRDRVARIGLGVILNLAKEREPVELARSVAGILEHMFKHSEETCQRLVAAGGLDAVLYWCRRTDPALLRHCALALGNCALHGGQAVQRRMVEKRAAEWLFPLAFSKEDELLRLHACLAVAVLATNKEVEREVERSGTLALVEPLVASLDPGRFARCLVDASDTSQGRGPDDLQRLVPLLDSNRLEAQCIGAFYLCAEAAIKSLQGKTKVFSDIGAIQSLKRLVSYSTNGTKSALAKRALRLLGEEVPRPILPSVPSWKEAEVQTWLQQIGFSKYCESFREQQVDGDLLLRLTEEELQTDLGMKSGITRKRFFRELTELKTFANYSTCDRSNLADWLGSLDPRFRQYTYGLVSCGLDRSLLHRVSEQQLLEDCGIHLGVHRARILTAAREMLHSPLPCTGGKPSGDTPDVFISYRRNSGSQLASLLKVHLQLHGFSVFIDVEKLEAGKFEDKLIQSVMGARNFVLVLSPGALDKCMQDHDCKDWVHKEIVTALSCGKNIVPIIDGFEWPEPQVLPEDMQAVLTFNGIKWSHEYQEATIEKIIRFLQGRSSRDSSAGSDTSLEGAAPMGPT
Procedure: For quantitation of hSARM1 NADase activity and the inhibitory effect of selected compounds (FIG. 6F; FIG. 7A-7B), purified hSARM1w.t. and hSARM1E642Q proteins were first diluted to 400 nM concentration in 25 mM HEPES pH 7.5, 150 mM NaCl, and then mixed in 25° C. with 1 uM of NAD+(in the same buffer) with a 1:1 v/v ratio. All inhibitors were diluted with the same buffer, and the pH values were measured and if necessary titrated to 7.5. Inhibitors were pre-incubated for 20 min with hSARM1 in 25° C. before mixing with NAD+. At designated time points, reactions were quenched by placing the reaction tubes in 95° C. for 2 min. Measurement of NAD+ concentrations was made by a modified enzymatic coupled cycling assay (K. S. Kanamori et al., NAD. Bio Protoc 8, (2018)). The reaction mix, which includes 100 mM Phosphate buffer pH=8, 0.78% ethanol, 4 uM FMN (Riboflavin 5′-monophosphate sodium salt hydrate), 27.2 U/ml Alcohol dehydrogenase (SIGMA), 1.8 U/ml Diaphorase (SIGMA) and freshly dissolved (in DDW) 8 uM Resasurin (SIGMA), was added to each sample at 1:1 (v/v) ratio and then transferred to 384-well black plate (Corning). Fluorescent data was measured using a SynergyHI (BioTek) plate reader at 554-nm excitation and 593-nm emission wavelengths. Standard curve equation for calculation of NAD+ concentration was created for each assay from constant NAD+ concentrations.

hSARM1 [2] = molecular target: T1, hSARM1; experiment: HPLC analysis of time dependent NAD+ consumption by hSARM1; settings: 2 mM NAD+ versus 50 μM; porcine brain NADase control not inhibited
Procedure: Purified hSARM1w.t. was first diluted to 800 nM in 25 mM HEPES pH 7.5, 150 mM NaCl, and then mixed in 37° C. with different concentrations of NAD+(in the same buffer) in a 1:1 v/v ratio and incubated for 0, 5 and 30 min. 1:100 (v/v). BSA (NEB Inc. 20 mg/ml) was included, and reactions were stopped by heating at 95° C. for 2 minutes. Where specified, NMN (Sigma-Aldrich-N3501) was added in different concentrations. For control, NAD+ consumption was compared to a commercially available porcine brain NADase 0.025 units/ml (Sigma-Aldrich-N9879).
HPLC measurements were performed using a Merck Hitachi Elite LaChrom HPLC system equipped with an autosampler, UV detector and quaternary pump. HPLC traces were monitored at 260 nm and integrated using EZChrom Elite software. 10 μL of each sample were injected onto a Waters Spherisorb ODS1 C18 RP HPLC Column (5 μm particle size, 4.6 mm×150 mm ID). HPLC solvents are: A: 100% methanol; B: 120 mM sodium phosphate pH 6.0; C double-distilled water (DDW). The column was pre-equilibrated with B:C mixture ratio of 80:20. Chromatography was performed at room temperature with a flow rate of 1.5 ml/min. Each analysis cycle was 12 min long as follows (A:B:C, v/v): fixed 0:80:20 0-4 min; gradient to 20:80:0 4-6 min; fixed 20:80:0 from 6-9 min. gradient to 0:80:20 from 9-10 min; fixed 0:80:20 from 10-12 min. The NAD+ hydrolysis product ADPR was eluted at the isocratic stage of the chromatography while NAD+ elutes in the methanol gradient stage.

hSARM1 [3] = molecular target: T1, hSARM1; experiment: eNAD-based NADase assay; settings: 1:10 eNAD:NAD+; 400 nM enzyme; activity decreases at higher concentrations
Procedure: FIG. 7D: Rate of change in nucleotide fluorescence under steady-state conditions of eNAD hydrolysis by hSARM1. Reactions were initiated by mixing 400 nM enzyme with different concentrations of 1:10 eNAD+: NAD+(mol/mol) mixtures. Three repeats, standard deviation error bars.
Serial dilutions were made with 25 mM HEPES pH 7.5, 150 mM NaCl buffer and the final mix was transferred to 384-well black plate (Corning). Reaction started by the addition of hSARM1 to a final concentration 400 nM. Then, eNAD degradation rate was monitored by fluorescence reading (330-nm excitation and 405-nm emission wavelengths) of the plate using a SynergyHI (BioTek) in 25° C. for 3 hours. For each NAD+ concentration, a control reaction without SARM1 was measured and subtracted from the + hSARM1 reading and the slope of the linear area was calculated. For the final plot, average of slopes from 3 separate assays for each concentration was calculated.

Compound: Nc1ncnc2c1ncn2[C@@H]1O[C@H](COP(=O)(O)OP(=O)(O)OP(=O)(O)O)[C@@H](O)[C@H]1O [ATP]
inhibition of hSARM1 NADase activity (hSARM1 [1]; analyzed as for glycerol, FIG. 7A): inhibits the NADase activity of hSARM1 in a dose-dependent manner

Compound: NC(=O)c1ccc[n+]([C@@H]2O[C@H](COP(=O)([O-])OP(=O)(O)OC[C@H]3O[C@@H](n4cnc5c(N)ncnc54)[C@H](O)[C@@H]3O)[C@@H](O)[C@H]2O)c1 [NAD+, Nicotinamide adenine dinucleotide]
substrate inhibition of hSARM1 NAD+ hydrolysis (hSARM1 [2]): clearly inhibited; also recorded: tightly inhibited
NAD+ concentration at the highest rate of hydrolysis (hSARM1 [3]): 100 µM

inhibition of hSARM1 NADase activity (hSARM1 [1]; 15% glycerol, measured 20 minutes after adding 0.5 μM NAD+): 72%
Compound: OCC(O)CO [glycerol]
